pIC50: −log10 of the molar value.
biological target: T1, AIK (Homo sapiens, UniProt O14965); assay: Determination of inhibition of AIK by direct fluorescence polarization (IMAP); assay type: biochemical; details: FP assay, 2.5 μM ATP, 2.5 nM AIK; read-out: IC50 of Exemplified Compounds Against AIK
T1 sequence (O14965 1-403): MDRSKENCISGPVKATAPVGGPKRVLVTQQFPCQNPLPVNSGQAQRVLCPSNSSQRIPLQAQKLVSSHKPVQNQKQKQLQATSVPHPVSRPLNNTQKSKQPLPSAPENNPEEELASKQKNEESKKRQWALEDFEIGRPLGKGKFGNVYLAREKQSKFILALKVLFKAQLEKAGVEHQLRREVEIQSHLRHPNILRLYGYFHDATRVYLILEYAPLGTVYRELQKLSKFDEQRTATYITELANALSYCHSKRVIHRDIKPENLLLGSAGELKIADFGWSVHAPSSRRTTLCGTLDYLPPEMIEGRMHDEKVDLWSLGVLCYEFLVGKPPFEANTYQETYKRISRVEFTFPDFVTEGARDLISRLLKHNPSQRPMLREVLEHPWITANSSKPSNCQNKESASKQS
Procedure: The inhibitory properties of compounds relative to AIK may be determined by the Direct Fluorescence Polarization detection method (FP) using a Greiner small volume black 384-well-plate format under the following reaction conditions: 50 mM Hepes pH 7.3, 10 mM MgCl2, 10 mM NaCl, 1 mM DTT, 0.01% Brij35, 100 nM Fluorescein-LRRASLG peptide (provided by SYNPEP), 5% DMSO, 2.5 μM ATP. Detection of the reaction product is performed by addition of IMAP binding reagent (Molecular Devices). Reaction product may be determined quantitatively by FP using an Analyst HT plate reader (Molecular Devices) with an excitation wavelength at 485 nm and emission at 530 nm and using a Fluorescein 505 dichroic mirror.
The assay reaction may be initiated as follows: 2 ul of (3×) 300 nM Fl-Peptide/7.5 uM ATP was added to each well of the plate, followed by the addition of 2 ul of (3×) inhibitor (2.5 fold serial dilutions for 11 data points for each inhibitor) containing 15% DMSO. 2 ul of (3×) 7.5 nM AIK solution may be added to initiate the reaction (final enzyme concentration was 2.5 nM for AIK). The reaction mixture may then be incubated at room temperature for 45 min, and quenched and developed by addition of 20 ul of 1 to 400 diluted IMAP binding reagent in 1× proprietary IMAP binding buffer. Fluorescence polarization readings of the resulting reaction mixtures may be measured after a 60-minute incubation at room temperature.
IC50 values may be calculated by non-linear curve fitting of the compound concentrations and fluorescent polarization values to the standard IC50 equation.

pIC50 | Structure (SMILES)
7.30 to 7.70 | CCS(=O)(=O)c1cccc(-c2ccc(C)c3[nH]c4ncccc4c23)c1 [Compound 17, 5-(3-(ethylsulfonyl)phenyl)-8-methyl-9H-pyrido[2,3-b]indole]
> 7.70 | CCS(=O)(=O)c1cccc(-c2ccc(OC)c3[nH]c4ncc(Cl)cc4c23)c1 [Compound 217]
7.30 to 7.70 | CCS(=O)(=O)c1cccc(-c2ccc(OCC3CCN(C)CC3)c3[nH]c4ncc(Cl)cc4c23)c1 [Compound 199, 3-chloro-5-(3-(ethylsulfonyl)phenyl)-8-((1-methylpiperidin-4-yl)methoxy)-9H-pyrido[2,3-b]indole]
7.00 to 7.30 | COc1ccc(-c2cccc(NC(C)=O)c2)c2c1[nH]c1ncc(C)cc12 [Compound 161, N-(3-(8-methoxy-3-methyl-9H-pyrido[2,3-b]indol-5-yl)phenyl)acetamide]
> 7.70 | CCOc1ncc(-c2cccc(S(=O)(=O)CC)c2)c2c1[nH]c1ncc(C)cc12 [Compound 50, 5-(3-Ethanesulfonyl-phenyl)-8-ethoxy-3-methyl-9H-dipyrido[2,3-b;4′,3′-d]pyrrole]
7.30 to 7.70 | CCS(=O)(=O)c1cccc(-c2cc(NC(=O)CCN(C)C)c(OC)c3[nH]c4ncc(C)cc4c23)c1 [Compound 240, 3-(dimethylamino)-N-(5-(3-(ethylsulfonyl)phenyl)-8-methoxy-3-methyl-9H-pyrido[2,3-b]indol-7-yl)propanamide]
7.00 to 7.30 | CCS(=O)(=O)c1cccc(-c2cnc(NCCN(C)C)c3[nH]c4ncc(C)cc4c23)c1 [Compound 41, N′-[5-(3-Ethanesulfonyl-phenyl)-3-methyl-9H-dipyrido[2,3-b;4′,3′-d]pyrrol-8-yl]-N,N-dimethyl-ethane-1,2-diamine]
> 7.70 | CNS(=O)(=O)c1cccc(-c2ccc(C)c3[nH]c4ncc(C)cc4c23)c1 [Compound 15, 3-(3,8-dimethyl-9H-pyrido[2,3-b]indol-5-yl)-N-methylbenzenesulfonamide]
> 7.70 | Cc1cnc(Nc2cc(Cl)ccc2OCC2CCN(C)CC2)c(Br)c1 [Compound 174, 3-bromo-N-(5-chloro-2-((1-methylpiperidin-4-yl)methoxy)phenyl)-5-methylpyridin-2-amine]
> 7.70 | CCS(=O)(=O)c1cccc(-c2cc(F)c(OCCN(C)C)c3[nH]c4ncc(C)cc4c23)c1 [Compound 203, 2-(5-(3-(ethylsulfonyl)phenyl)-7-fluoro-3-methyl-9H-pyrido[2,3-b]indol-8-yloxy)-N,N-dimethylethanamine]
7.30 to 7.70 | CCS(=O)(=O)c1cccc(-c2cc(C(=O)NCCN(C)C)c(C)c3[nH]c4ncc(C)cc4c23)c1 [Compound 87, N-(2-(dimethylamino)ethyl)-5-(3-(ethylsulfonyl)phenyl)-3,8-dimethyl-9H-pyrido[2,3-b]indole-7-carboxamide]
> 7.70 | CCS(=O)(=O)c1cccc(-c2cnc(OCC3CCN(C)CC3)c3[nH]c4ncc(C)cc4c23)c1 [Compound 53, 5-(3-Ethanesulfonyl-phenyl)-3-methyl-8-(1-methyl-piperidin-4-ylmethoxy)-9H-dipyrido[2,3-b;4′,3′-d]pyrrole]
7.00 to 7.30 | Cc1cnc2[nH]c3c(OCC4CCN(C)CC4)ccc(Cl)c3c2c1 [Compound 175, 5-chloro-3-methyl-8-((1-methylpiperidin-4-yl)methoxy)-9H-pyrido[2,3-b]indole]
< 7.00 | Cc1cnc2[nH]c3c(C)c(C(=O)NCCN(C)C)cc(Cl)c3c2c1 [Compound 120, 5-chloro-N-(2-(dimethylamino)ethyl)-3,8-dimethyl-9H-pyrido[2,3-b]indole-7-carboxamide]
> 7.70 | CCS(=O)(=O)c1cccc(-c2ccc(OCC3CCN(C)CC3)c(I)c2)c1 [Compound 197, 4-((3′-(ethylsulfonyl)-3-iodobiphenyl-4-yloxy)methyl)-1-methylpiperidine]
< 7.00 | CCS(=O)(=O)c1cccc(-c2cnc(C#N)c3[nH]c4ncc(C)cc4c23)c1 [Compound 48, 5-(3-Ethanesulfonyl-phenyl)-3-methyl-9H-dipyrido[2,3-b;4′,3′-d]pyrrole-8-carbonitrile]
7.30 to 7.70 | Cc1cnc2[nH]c3c(C)c(C(=O)NCCN(C)C)cc(-c4cccc(NC(=O)C5CC5)c4)c3c2c1 [Compound 111, 5-(3-(cyclopropanecarboxamido)phenyl)-N-(2-(dimethylamino)ethyl)-3,8-dimethyl-9H-pyrido[2,3-b]indole-7-carboxamide]
> 7.70 | COc1ccc(Cl)cc1Nc1ncc(C)cc1Br [Compound 154, 3-bromo-N-(5-chloro-2-methoxyphenyl)-5-methylpyridin-amine]
> 7.70 | CCS(=O)(=O)c1cccc(-c2cc(C(=O)NCCOCCO)c(C)c3[nH]c4ncc(C)cc4c23)c1 [Compound 110]

Reference: patent publication US8119655B2, “Kinase inhibitors” (Takeda Pharmaceutical Company Limited, priority 2005, dated 2012)
